# Measured values from patent US20230138395A1, “PHARMACEUTICAL COMPOSITIONS OF A THERAPEUTIC POLYENE MACROLIDE AND METHODS OF THEIR USE” (priority 2020, published 2023).
# Values joined by “and” are separate entries in the source; they are usually repeats but may differ in a detail not shown here. Identical values can stand only once. Like-named read-outs stand apart in the source and are kept apart here.
# Assays:
# [1] = test system: individual Aspergillus spp. (Table 13, species not given); test: MIC testing (CLSI M38-A2), Table 13; assay type: cell-based; details: Aspergillus sp. of Table 13, caspofungin read as MEC; for MIC Range: in µg/mL; for MIC50: inhibits 50% of strains; for MIC90: inhibits 90% of strains
# [2] = test system: Fusarium strains (Table 18); test: MFC determination, Table 18; assay type: cell-based, Fusarium spp.; details: for MFC50: kills 50% of strains; for MFC90: kills 90% of strains
# [3] = test system: all Aspergillus strains tested; test: MFC determination, summary; assay type: cell-based; details: for MFC50: kills 50% of strains; for MFC90: kills 90% of strains
# [4] = test system: Candida albicans SC5314; test: Disseminated candidiasis in immunocompromised murine model (BALB/c mice): tissue fungal burden; assay type: in vivo; details: Experiment I; 6 mg/kg i.v., 7 days
# [5] = test system: individual Aspergillus spp. (Table 15, species not named); test: MIC testing (CLSI M38-A2), Table 15; assay type: cell-based; details: Aspergillus sp. of Table 15, caspofungin read as MEC; for MIC50: inhibits 50% of strains; for MIC90: inhibits 90% of strains
# [6] = test system: C. parapsilosis; test: MIC testing (CLSI M27-A3); assay type: cell-based; set-up: MIC: unit not given beside the values; details: for MIC50 / MIC90: C. parapsilosis; for MIC50: inhibits 50% of strains; for MIC90: inhibits 90% of strains
# [7] = test system: all Candida strains; test: MFC determination, summary; assay type: cell-based; details: for MFC50: kills 50% of strains; for MFC90: kills 90% of strains
# [8] = test system: Candida albicans; test: MIC testing (CLSI M27-A3); assay type: cell-based; set-up: MIC: unit not given beside the values; details: for MIC Range: in µg/mL; for MIC50: inhibits 50% of strains; for MIC90: inhibits 90% of strains
# [9] = test system: C. tropicalis; test: MFC determination; assay type: cell-based; details: for MFC Range: C. tropicalis strains, in µg/mL; for MFC50 / MFC90: C. tropicalis; for MFC50: kills 50% of strains; for MFC90: kills 90% of strains
# [10] = test system: individual Aspergillus spp. (Table 13, species not given); test: MFC determination, Table 13; assay type: cell-based; details: Aspergillus sp. of Table 13; for MFC50: kills 50% of strains; for MFC90: kills 90% of strains
# [11] = test system: C. parapsilosis; test: MFC determination; assay type: cell-based; details: for MFC Range: C. parapsilosis strains; for MFC50 / MFC90: C. parapsilosis; for MFC50: kills 50% of strains; for MFC90: kills 90% of strains
# [12] = test system: C. krusei strains; test: MFC determination; assay type: cell-based; details: for MFC Range: C. krusei strains, in µg/mL; for MFC50 / MFC90: C. krusei; for MFC50: kills 50% of strains; for MFC90: kills 90% of strains
# [13] = test system: Fusarium strains; test: MFC determination, Table 17; assay type: cell-based, Fusarium spp.; details: Fusarium strains (Table 17); for MFC Range: in µg/mL; for MFC50: kills 50% of strains; for MFC90: kills 90% of strains
# [14] = test system: Cr. neoformans strains; test: MFC determination; assay type: cell-based, Cryptococcus neoformans; details: for MFC Range: Cr. neoformans strains, in µg/mL; for MFC50 / MFC90: Cr. neoformans; for MFC50: kills 50% of strains; for MFC90: kills 90% of strains
# [15] = test system: individual Aspergillus spp. (Table 12, species not named); test: MIC testing (CLSI M38-A2), Table 12; assay type: cell-based; details: Aspergillus sp. of Table 12, caspofungin read as MEC; for MIC50: inhibits 50% of strains; for MIC90: inhibits 90% of strains
# [16] = test system: all Candida strains; test: MIC testing (CLSI M27-A3), summary; assay type: cell-based; details: for MIC50: inhibits 50% of strains; for MIC90: inhibits 90% of strains
# [17] = test system: C. albicans SC5314; test: In vitro activity (MIC) against the infecting strain, Example 18; assay type: cell-based, Candida albicans
# [18] = test system: individual Aspergillus spp. (Table 14, species not named); test: MIC testing (CLSI M38-A2), Table 14; assay type: cell-based; details: Aspergillus sp. of Table 14, caspofungin read as MEC; for MIC50: inhibits 50% of strains; for MIC90: inhibits 90% of strains
# [19] = test system: Penicillium strains; test: MFC determination; assay type: cell-based, Penicillium spp.; details: for MFC50: kills 50% of strains; for MFC90: kills 90% of strains
# [20] = test system: Fusarium strains; test: MIC testing (CLSI M38-A2), Table 17; assay type: cell-based, Fusarium spp.; details: Fusarium strains (Table 17); for MIC50: inhibits 50% of strains; for MIC90: inhibits 90% of strains
# [21] = test system: Candida albicans; test: MFC determination; assay type: cell-based; details: for MFC Range: in µg/mL; for MFC50: kills 50% of strains; for MFC90: kills 90% of strains
# [22] = test system: Cr. neoformans strains; test: MIC testing (CLSI M27-A3, YNB, 72 h); assay type: cell-based, Cryptococcus neoformans; details: for MIC Range: Cr. neoformans strains, 72 h, in µg/mL; for MIC50 / MIC90: Cr. neoformans; for MIC50: inhibits 50% of strains; for MIC90: inhibits 90% of strains
# [23] = test system: Penicillium strains; test: MIC testing (CLSI M38-A2); assay type: cell-based, Penicillium spp.; details: for MIC50 / MIC90: Penicillium; for MIC50: inhibits 50% of strains; for MIC90: inhibits 90% of strains
# [24] = test system: individual Aspergillus spp. (Table 15, species not named); test: MFC determination, Table 15; assay type: cell-based; details: Aspergillus sp. of Table 15; for MFC50: kills 50% of strains; for MFC90: kills 90% of strains
# [25] = test system: A. fumigatus AF91; test: In vitro activity (MIC) against the infecting strain, Example 17; assay type: cell-based, Aspergillus fumigatus
# Experimental: Minimum Inhibitory Concentration: MIC testing was performed according to the Clinical and Laboratory Standards Institute (CLSI) M27-A3 and M38-A2 standards for the susceptibility testing of yeasts and filamentous fungi, respectively (Cryptococcus isolates were incubated for 72 h). For yeast strains, the incubation temperature and time were 35° C. and 24-48 h, respectively, and the inoculum size was 0.5-2.5×10^3 CFU/ml. For filamentous strains, the inoculum size was 0.4-5×10^4 CFU/ml, and the incubation time was strain and drug specific. RPMI 1640 was the test medium throughout, with the exception of the use of YNB for Cryptococcus. Inhibition endpoints for compound 1A were recorded at 50% and 100% after both 24 h and 48 h incubation; caspofungin results against Aspergillus strains were read as minimum effective concentrations (MEC), the lowest concentration that leads to small, rounded, compact growth as compared to the confluent growth of the control.
# [26] = Fluconazole-susceptible C. albicans n = 13
# [27] = individual C. albicans strain with elevated MICs to non-polyene comparators (Table 22), listed as Flu
# [28] = Fluconazole-resistant C. albicans n = 7
smiles,measurement,setting,value
"OC(Cn1cncn1)(Cn1cncn1)c1ccc(F)cc1F [Fluconazole, fluconazole]",MIC Range,[1],64
same,MIC50,[1],64 µg/mL
same,MIC90,[1],64 µg/mL
same,MFC Range,[2],> 32 µg/mL
same,MFC50,[2],> 32 µg/mL
same,MFC90,[2],> 32 µg/mL
same,MFC Range,[3],> 64 µg/mL
same,MFC50,[3],> 64 µg/mL
same,MFC90,[3],> 64 µg/mL
same,"Brain tissue fungal burden, Mean log CFUs ± the standard deviation",[4],1.28 ± 1.95 log CFUs
same,"Kidney tissue fungal burden, Mean log CFUs ± the standard deviation",[4],3.87 ± 1.53 log CFUs
same,MIC50,[5],64 µg/mL
same,MIC90,[5],> 64 µg/mL
same,MIC50,[6],0.5 µg/mL
same,MIC90,[6],0.5 µg/mL
same,MIC,"[6]; individual C. parapsilosis strain with elevated MICs to non-polyene comparators (Table 22), listed as Flu, in µg/mL",0.25 and 0.5 and 1
same,MFC50,[7],> 32 µg/mL
same,MFC90,[7],> 32 µg/mL
same,MIC Range,[8]; [26],0.125-0.5
same,MIC50,[8]; [26],0.25 µg/mL
same,MIC90,[8]; [26],0.25 µg/mL
same,MIC,[8]; [27],32 (2×) and >32 (4×) and >64
same,MFC Range,[9],>64
same,MFC50,[9],> 64 µg/mL
same,MFC90,[9],> 64 µg/mL
same,MFC Range,[10],64 µg/mL
same,MFC50,[10],64 µg/mL
same,MFC90,[10],64 µg/mL
same,MFC Range,[11]; in µg/mL,>64
same,MFC50,[11],> 64 µg/mL
same,MFC90,[11],> 64 µg/mL
same,MFC,"[11]; individual C. parapsilosis strain with elevated MICs to non-polyene comparators (Table 22), in µg/mL",>64
same,MFC Range,[12],>64
same,MFC50,[12],> 64 µg/mL
same,MFC90,[12],> 64 µg/mL
same,MFC,[12]; individual C. krusei strain with elevated MICs to non-polyene comparators (Table 22),> 64 µg/mL
same,MFC Range,[13],>64
same,MFC50,[13],> 64 µg/mL
same,MFC90,[13],> 64 µg/mL
same,MFC Range,[14],2
same,MFC50,[14],> 64 µg/mL
same,MFC90,[14],> 64 µg/mL
same,MIC50,[15],> 64 µg/mL
same,MIC90,[15],> 64 µg/mL
same,MIC50,[16],0.5 µg/mL
same,MIC90,[16],> 32 µg/mL
same,MIC,"[17]; Candida albicans, read-out: MIC",0.25 µg/mL
same,MIC50,[18],> 64 µg/mL
same,MIC90,[18],> 64 µg/mL
same,MFC50,[19],> 64 µg/mL
same,MFC90,[19],> 64 µg/mL
same,MIC50,[20],> 64 µg/mL
same,MIC90,[20],> 64 µg/mL
same,MFC Range,[21]; [28],>32
same,MFC50,[21]; [26],> 32 µg/mL
same,MFC90,[21]; [26],> 32 µg/mL
same,MFC,[21]; [27],>32 (6×) and >64
same,MIC Range,[22],<0.06-16
same,MIC50,[22],2 µg/mL
same,MIC90,[22],8 µg/mL
same,MIC50,[23],> 64 µg/mL
same,MIC90,[23],> 64 µg/mL
same,MFC Range,[24],> 64 µg/mL
same,MFC50,[24],> 64 µg/mL
same,MFC90,[24],> 64 µg/mL
C[C@@H]1[C@H](O)[C@@H](C)/C=C/C=C/C=C/C=C/C=C/C=C/C=C/[C@H](O[C@@H]2O[C@H](C)[C@@H](O)[C@H](N)[C@@H]2O)C[C@@H]2O[C@](O)(C[C@@H](O)C[C@@H](O)[C@H](O)CC[C@@H](O)C[C@@H](O)CC(=O)O[C@H]1C)C[C@H](O)[C@H]2C(=O)O [Amphotericin B],MIC Range,[1],1-2
same,MIC50,[1],1 µg/mL
same,MIC90,[1],2 µg/mL
same,MFC50,[2],1 µg/mL
same,MFC90,[2],8 µg/mL
same,MFC50,[3],> 8 µg/mL
same,MFC90,[3],> 8 µg/mL
same,MIC Range,[5]; in µg/mL,0.25-16
same,MIC50,[5],8 µg/mL
same,MIC90,[5],8 µg/mL
same,MIC Range,"[6]; C. parapsilosis strains, in µg/mL",0.125-1
same,MIC50,[6],0.25 µg/mL
same,MIC90,[6],0.5 µg/mL
same,MFC Range,[7]; in µg/mL,0.125-2
same,MFC50,[7],0.5 µg/mL
same,MFC90,[7],1 µg/mL
same,MIC,[25],2 µg/mL
same,MIC Range,[8]; [28],0.25-1
same,MIC Range,[8]; [26],0.125-0.5
same,MIC50,[8]; [26],0.25 µg/mL
same,MIC90,[8]; [26],0.5 µg/mL
same,MFC Range,[9],0.25-1
same,MFC50,[9],0.5 µg/mL
same,MFC90,[9],1 µg/mL
same,MFC50,[10],> 8 µg/mL
same,MFC90,[10],> 8 µg/mL
same,MFC Range,[11]; in µg/mL,0.5-2
same,MFC50,[11],1 µg/mL
same,MFC90,[11],1 µg/mL
same,MFC Range,[12],1
same,MFC50,[12],1 µg/mL
same,MFC90,[12],1 µg/mL
same,MFC Range,[13],1-4
same,MFC50,[13],2 µg/mL
same,MFC90,[13],2 µg/mL
same,MFC Range,[14],0.25-2
same,MFC50,[14],0.5 µg/mL
same,MFC90,[14],1 µg/mL
same,MIC Range,[15]; in µg/mL,1-8
same,MIC50,[15],8 µg/mL
same,MIC90,[15],8 µg/mL
same,MIC Range,[16]; in µg/mL,0.125-1
same,MIC50,[16],0.5 µg/mL
same,MIC90,[16],0.5 µg/mL
same,MIC,[17],0.125 µg/mL
same,MIC Range,[18]; in µg/mL,0.25-2
same,MIC50,[18],1 µg/mL
same,MIC90,[18],1 µg/mL
same,MFC50,[19],4 µg/mL
same,MFC90,[19],> 8 µg/mL
same,MIC Range,[20]; in µg/mL,0.5-2
same,MIC50,[20],1 µg/mL
same,MIC90,[20],2 µg/mL
same,MFC Range,[21]; [28],0.5-1
same,MFC Range,[21]; [26],0.125-1
same,MFC50,[21]; [26],0.25 µg/mL
same,MFC90,[21]; [26],1 µg/mL
same,MIC Range,[22],0.06-1
same,MIC50,[22],0.25 µg/mL
same,MIC90,[22],0.5 µg/mL
same,MIC Range,"[23]; Penicillium strains, in µg/mL",0.5-4
same,MIC50,[23],1 µg/mL
same,MIC90,[23],2 µg/mL
same,MFC50,[24],> 32 µg/mL
same,MFC90,[24],> 32 µg/mL
